This data set can be described thus: Effect of heparin-binding peptides on cellular viability (CellTiter 96 AQueous colorimetric metabolic assay). Particulars: mouse, 3T3 fibroblasts.

Peptide text beside a SMILES is read from it. * marks the point of attachment. Dansyl = CN(C)c1cccc2c(S(=O)(=O)*)cccc12

Method: 3T3 fibroblasts were incubated with various doses of W-PBD1 () and dG-PBD1 (▪) peptide (n=3). Viability was measured using a colorimetric metabolic assay based on the reduction of a tetrazolium salt into a formazan product.
In one example to show toxicity of two heparin binding peptides, 3T3 fibroblasts were treated with various concentrations of two different heparin binding peptides. Cell viability was assessed using the CellTiter 96® AQueous reagent (Promega, Madison, Wis.) after 1 hour at 37° C. in a humidified incubator with 5% CO2, following the manufacturer's protocol, incorporated by reference herein. Briefly, 3T3 fibroblasts were cultured at 37° C. in a humidified incubator with 5% CO2 using Dulbecco's modified Eagle Medium (DMEM) containing 10% fetal bovine serume (FBS), pen/strep, and 2 mM glutamine (Invitrogen). Serial dilutions of dG-PGB1 and W-PBD-1 using PBS as the diluent, and 75 μl of the dilutions were transferred in triplicate into the wells of a 96-well microtiter plate. […] Finally, the absorbance at 490 mm was measured with a microplate spectrophotometer. […] The amount of viable cells was determined by subtracting the absorbance readings of media containing blank wells from every other well and comparing the ratio of the absorbance reading for each sample with that of the positive control.

The term CC50 denotes the concentration giving 50% cytotoxicity. In turn, `CC(C)C[C@H](NC(=O)[C@H](CCCCN)NC(=O)[C@H](C)NC(=O)[C@H](Cc1ccccc1)NC(=O)[C@H](C)NC(=O)[C@H](CCCCN)NC(=O)CNS(=O)(=O)c1cccc2c(N(C)C)cccc12)C(=O)N[C@@H](C)C(=O)N[C@@H](C)C(=O)N[C@@H](CCCNC(=N)N)C(=O)N[C@@H](CC(C)C)C(=O)N[C@@H](Cc1ccc(O)cc1)C(=O)N[C@@H](CCCNC(=N)N)C(=O)N[C@@H](CCCCN)C(=O)N[C@@H](C)C(=O)NCC(=O)N[C@@H](CS)C(=O)O` [dG-PBD1, dansyl-GKAFAKLAARLYRKAGC] (Dansyl-GKAFAKLAARLYRKAGC-OH) yielded a CC50 at 1 h of 19.3 ± 1.1 µM. In the case of `CC(C)C[C@H](NC(=O)[C@H](CCCCN)NC(=O)[C@H](C)NC(=O)[C@H](Cc1ccccc1)NC(=O)[C@H](C)NC(=O)[C@H](CCCCN)NC(=O)[C@@H](N)Cc1c[nH]c2ccccc12)C(=O)N[C@@H](C)C(=O)N[C@@H](C)C(=O)N[C@@H](CCCNC(=N)N)C(=O)N[C@@H](CC(C)C)C(=O)N[C@@H](Cc1ccc(O)cc1)C(=O)N[C@@H](CCCNC(=N)N)C(=O)N[C@@H](CCCCN)C(=O)N[C@@H](C)C(=O)NCC(=O)N[C@@H](CS)C(=O)O` [W-PBD1, WKAFAKLAARLYRKAGC] (H-WKAFAKLAARLYRKAGC-OH; N-terminus and C-terminus assumed) it was 58.1 ± 7.3 µM.

Source of the values: patent US20090269406A1, “Therapeutic uses of biocompatible biogel compositions” (priority 2008, published 2009).
